Measured values: PubChem BioAssay (NCI)
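All cell lines were grown in 96-well plates and treated with compound for 48 hours. GI50 marks 50% less growth. TGI: total growth inhibition.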

What was measured:
Test in all cases: NCI tumour cell line growth inhibition, 48 h
OVCAR-3 ovarian = system: OVCAR-3 ovarian
MDA-MB-231 breast = system: MDA-MB-231 breast
COLO 205 colon = system: COLO 205 colon
SNB-75 CNS = system: SNB-75 CNS
HCT-15 colon = system: HCT-15 colon
HS 578T breast = system: HS 578T breast
HOP-62 NSCLC = system: HOP-62 NSCLC
M14 melanoma = system: M14 melanoma
NCI-H522 lung = system: NCI-H522 lung
RXF 393 renal = system: RXF 393 renal

SMILES | TGI (OVCAR-3 ovarian) [µM] | TGI (MDA-MB-231 breast) [µM] | TGI (COLO 205 colon) [µM] | TGI (SNB-75 CNS) [µM] | TGI (HCT-15 colon) [µM] | TGI (HS 578T breast) [µM] | TGI (HOP-62 NSCLC) [µM] | TGI (M14 melanoma) [µM] | TGI (NCI-H522 lung) [µM] | TGI (RXF 393 renal) [µM] | GI50 (OVCAR-3 ovarian) [µM] | GI50 (MDA-MB-231 breast) [µM] | GI50 (COLO 205 colon) [µM] | GI50 (NCI-H522 lung) [µM] | GI50 (SNB-75 CNS) [µM] | GI50 (HCT-15 colon) [µM] | GI50 (HS 578T breast) [µM] | GI50 (HOP-62 NSCLC) [µM] | GI50 (RXF 393 renal) [µM]
CS(=O)(=O)OCCN1CCC2(CC1)SSC1(CCN(CCOS(C)(=O)=O)CC1)S2 | 99.7 | > 100 | > 100 | > 100 | > 100 | > 100 | > 100 | > 100 | – | – | – | – | – | – | – | – | – | – | –
COc1cccc(NC(=O)CSc2nnc(-c3ccc(N=Cc4ccc(Cl)cc4)cc3)o2)c1 | – | – | 41.4 | 66.3 | 33.8 | – | > 100 | 47 | 32.9 | 34 | – | – | – | – | – | – | – | – | –
O=C(Nn1c(-c2ccccc2)nc2ccccc2c1=O)c1ccccn1 | > 100 | > 100 | > 100 | > 100 | – | > 100 | > 100 | > 100 | > 100 | > 100 | – | – | – | – | – | – | – | – | –
Cc1ccc(C(=O)N(C(C)C)C(C)C)cc1N=NN(C)C | > 100 | > 100 | > 100 | – | > 100 | > 100 | > 100 | > 100 | 43.2 | – | – | – | – | – | – | – | – | – | –
N#Cc1c(NC(=O)c2ccccc2)sc2c1CCC(=O)C2 | 2.43 | 6.28 | 4.46 | 6.2 | 2.39 | 7.32 | > 100 | – | 4.66 | 3.65 | 1.04 | 1.99 | 1.93 | 0.358 | 1.64 | 0.395 | 1.92 | 2.55 | 1.17
NC(N)=N/N=C/c1c(-c2ccc([N+](=O)[O-])cc2)nc2sccn12 | 2.89 | 3.13 | 1.96 | 3.27 | 23.7 | 4.14 | – | 3.38 | 3.83 | 7.55 | – | – | – | – | – | – | – | – | –
CC(CCC(=O)O)[C@H]1CCC2[C@H]3C(CC[C@@]21C)[C@@]1(C)CCC(O)C[C@H]1C[C@@H]3O (stereo partly drawn) | – | > 100 | > 100 | > 100 | > 100 | – | > 100 | > 100 | > 100 | > 100 | – | – | – | – | – | – | – | – | –
Cc1cc(C)c(S(=O)(=O)N(CCCCN)OCCCN)c(C)c1 | 36.3 | – | 22.7 | 27.5 | – | 34.4 | – | 35.9 | 29.9 | 31.6 | – | – | – | – | – | – | – | – | –
O=C(c1ccc2ccccc2c1)C1S(=O)(=O)OCCOS1(=O)=O | > 100 | – | > 100 | – | > 100 | – | > 100 | > 100 | – | – | – | – | – | – | – | – | – | – | –
Cc1csc2c1C(=O)c1ccsc1C2=O | 5.44 | 11 | 24.8 | 3.51 | 3.51 | 4.37 | – | 2.02 | 5.16 | 11.8 | – | – | – | – | – | – | – | – | –
CC[C@]12C=CCN3CCC4(c5cc(N=Nc6ccccc6)c(OC)cc5N(C)[C@H]4[C@@](O)(C(=O)OC)[C@@H]1OC(C)=O)[C@@H]32 (stereo partly drawn) | 28.1 | 31.6 | 77.1 | – | 34.4 | 39 | 35.2 | 43.6 | 33 | 30.9 | – | – | – | – | – | – | – | – | –
CC(=O)NC1C(CO)O[C@@H]2OC(C)(C)O[C@H]12 (stereo partly drawn) | > 100 | > 100 | – | > 100 | > 100 | > 100 | > 100 | > 100 | > 100 | – | – | – | – | – | – | – | – | – | –
COC(=O)c1ccc(-c2nc(C#N)c(N)o2)cc1 | > 100 | 85.8 | > 100 | – | > 100 | > 100 | > 100 | > 100 | > 100 | > 100 | – | – | – | – | – | – | – | – | –
O=S1(=O)NNC(=NCc2ccc(Cl)cc2)c2ccccc21 | > 100 | – | > 100 | – | > 100 | – | – | > 100 | – | > 100 | – | – | – | – | – | – | – | – | –
CN=C(Nn1cnnc1)OC | > 100 | > 100 | > 100 | – | > 100 | > 100 | > 100 | > 100 | > 100 | > 100 | – | – | – | – | – | – | – | – | –
CN1CCn2c(Br)ccc2C1=O | > 100 | – | > 100 | – | > 100 | – | > 100 | > 100 | > 100 | > 100 | – | – | – | – | – | – | – | – | –
COC(=O)C(/C(=N/NC(=O)c1ccncc1)C(=O)Nc1ccccc1OC)c1nc2ccc(Cl)cc2[nH]c1=O (stereo not drawn) | > 100 | > 100 | – | > 100 | > 100 | > 100 | > 100 | > 100 | > 100 | > 100 | – | – | – | – | – | – | – | – | –
O=C(c1ccccc1)c1c(C(F)(F)F)n([O-])c2ccccc2[n+]1=O | 1.41 | – | – | 2.74 | > 100 | > 100 | > 100 | – | 2 | 3.83 | – | – | – | – | – | – | – | – | –
c1ccc(CCN2CCCCCC2)nc1 | > 100 | > 100 | > 100 | – | > 100 | > 100 | > 100 | > 100 | > 100 | > 100 | – | – | – | – | – | – | – | – | –
CCCCc1c2c(nc3c1CCc1cc4c(nc1-3)-c1nc3c(c(CCCC)c1CC4)CCC/C3=C\c1ccccc1)/C(=C/c1ccccc1)CCC2 | > 100 | – | > 100 | – | > 100 | – | > 100 | > 100 | > 100 | 65.4 | – | – | – | – | – | – | – | – | –
CNC(=O)CCC(NC(C)=O)C(=O)NC(Cc1ccc(NC(=O)CCCCC(C)=O)cc1)C(=O)NC(CCC(=O)NC)C(=O)NC (stereo not drawn) | > 100 | > 100 | > 100 | – | > 100 | > 100 | > 100 | > 100 | > 100 | > 100 | – | – | – | – | – | – | – | – | –
N#Cc1c(Nc2ccc(F)cc2)[n+]([O-])c2ccc(Cl)cc2[n+]1[O-] | 13.3 | 16.7 | 4.52 | 74.6 | 13.3 | > 100 | 42.2 | 44.2 | – | 27.3 | – | – | – | – | – | – | – | – | –
COc1cc2cc(C(=O)N3CC(CCl)c4c3cc(N)c3ccccc43)[nH]c2cc1OCCN(C)C (stereo not drawn) | 0.0209 | 0.0173 | 0.00971 | – | 5.45 | 0.125 | 0.00741 | 0.00977 | – | < 0.005 | – | – | – | – | – | – | – | – | –
COc1cc(C2C3=C(CCC3=O)Oc3cc4c(cc32)OCO4)cc(OC)c1OC (stereo not drawn) | 0.381 | – | 1.81 | 0.481 | > 100 | – | 0.742 | > 100 | – | > 100 | – | – | – | – | – | – | – | – | –
Clc1nc(-[n+]2ccc(-c3ccncc3)cc2)nc(Nc2ccccc2)c1Cl | > 100 | > 100 | > 100 | – | > 100 | > 100 | > 100 | > 100 | – | > 100 | – | – | – | – | – | – | – | – | –
